Data taken from article PMC10566475, “A cell-active cyclic peptide targeting the Nrf2/Keap1 protein–protein interaction” (Chemical Science, 2023).
Like-named read-outs stand apart in the source and are kept apart here. *1 amine or outer side, *2 acyl side, *3 side chain or, on linkers, in order; H or OH if unused. Where a SMILES comes first, the peptide text is derived from it. Bridges are numbered along the chain shown (N, C = ends). X1 = CN(CC(=O)O)c1nc(CC[*:1])cc(CC[*:2])n1; mXylylene = c1cc(C[*:1])cc(C[*:2])c1; CH2COCH2 = O=C(C[*:1])C[*:2]; CH2 = C([*:1])[*:2]

Experiments:
[1] = target: T1, human Keap1 Kelch domain (A321-T609) (Homo sapiens, UniProt Q14145); experiment: Surface plasmon resonance (SPR) direct binding assay, immobilised Keap1 Kelch domain
T1 construct: human Keap1 Kelch domain (A321-T609) fused with N-terminal 6x His-tag; 6xHis (N); made in house
T1 sequence (Q14145 321-609): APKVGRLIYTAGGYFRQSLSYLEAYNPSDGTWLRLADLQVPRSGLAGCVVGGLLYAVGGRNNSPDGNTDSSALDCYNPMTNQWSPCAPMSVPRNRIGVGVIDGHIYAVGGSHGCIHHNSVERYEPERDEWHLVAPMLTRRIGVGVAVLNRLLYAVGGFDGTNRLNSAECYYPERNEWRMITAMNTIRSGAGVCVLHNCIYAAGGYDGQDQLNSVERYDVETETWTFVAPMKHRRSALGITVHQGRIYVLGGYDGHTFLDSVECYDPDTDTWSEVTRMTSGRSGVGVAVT
Description: (§1) We based the design of our Nrf2-like cyclic peptides around the amino acid sequence of the ETGE motif (namely 12-mer ^73[…]^84L) and SAR studies reported in the literature.[9,10,12,14] The […] motif is known to adopt a beta-turn conformation upon binding to Keap1. Residues Q73-Q75 and L85 stabilise the bound conformation, L76-D77 and E79-G81 bind deep into the pocket with E79 and E82 forming electrostatic interactions with Keap1 and D77 and T80 stabilising the beta-turn via H-bonds with E78 not contributing to the binding. […] The ability of the cyclic peptides to bind to the Kelch domain of Keap1 was evaluated using surface plasma resonance (SPR), where the Kelch domain is immobilised onto a SPR sensor chip. Additionally, we assessed the ability of the peptides to inhibit the PPI between Nrf2 and the Kelch domain of Keap1 using a time-resolved FRET (TR-FRET) assay. Here, the IC50 for inhibition of the interaction between the human Keap1 Kelch domain and an Nrf2-ETGE peptide is measured.
(§2) Surface Plasmon Resonance (SPR)
(§3) Peptide affinities to the Kelch domain of Keap1 is determined in a direct binding assay using 8K surface plasmon resonance (SPR) biosensor (Cytiva) at 20°C. Immobilization of Keap1 Kelch domain on a CM5 sensor chip (Cytiva) is performed using standard amine coupling procedure. The surface is washed with 10mM NaOH, 1M NaCl before activated with EDC/NHS (Cytiva), followed by immobilization of human Keap1 Kelch domain (A321-T609) fused with N-terminal 6x His-tag7 (in 10 mM MES, pH=6.4).
(§4) Finally, the surface is deactivated by Ethanolamine. Immobilization levels are typically 5000-6000 RU.
(§5) The reference spot is treated as described, omitting the injection of Keap1. Compound concentration series are injected over the immobilized protein in increasing concentrations using single cycle kinetics (SCK) in running buffer (10 mM HEPES, 150 mM NaCl, 0.05% Tween20, 1 mM TCEP, pH 7.4). A 1:1 Langmuir interaction model is fitted to the experimental traces, enabling determination of kon, koff and […]
(§6) In the time-resolved Förster resonance energy transfer (TR-FRET) assay8 the IC50 of inhibitors which […]
(§7) are determined. The TR-FRET is measured between a Tb-labelled mAb (Anti—6-His, Tb cryptate Gold, CisBio 61H12TLB) that binds to Keap 1 Kelch domain and d2-labelled SA-biotin-peptide.
(§8) The assay was performed in 384-well white low-volume, medium binding plates (Greiner Bio One, Austria) in 20 mM HEPES pH 7.5, 150 mM NaCl, 2 mM GSH (Sigma-Aldrich, USA),1mM EDTA (Sigma-Aldrich, USA), and 0.01% Pluronic F127 (MilliporeSigma, USA), with a final reaction volume of 10 µL.
(§9) To determine the ability of synthesized peptide to inhibit PPI between the Keap1 Kelch domain and Nrf2, 1nM purified human Keap1 Kelch domain (A321-T609) fused with N-terminal 6x His-tag, 5 nM biotinylated Nrf2 peptide ([…], Genescript, USA), d2-labeled streptavidin (Revvity, USA), and […] anti-His monoclonal antibody tagged with terbium cryptate (Revvity, USA), were incubated in the presence of varying concentrations of investigated peptides for 3 h at room […]
(§10) 7 Li X, Zhang D, Hannink M, Beamer LJ. Crystallization and initial crystallographic analysis of the Kelch domain from human Keap1. Acta
(§11) 8 S. Lee, D. Ali Abed, L. J. Beamer, L. Hu, Development of a Homogeneous Time-Resolved Fluorescence Resonance Energy Transfer (TR-

[2] = target: T2, interaction between the human Keap1 Kelch domain and an Nrf2-ETGE peptide (Homo sapiens, UniProt Q14145); experiment: Keap1-Nrf2 TR-FRET (HTRF) assay; assay type: binding
T2 construct: 1nM purified human Keap1 Kelch domain (A321-T609) fused with N-terminal 6x His-tag; made in house
T2 sequence (Q14145 321-609): as above
Description: as §1, §2, §3, §4, §5, §6, §7, §8, §9, §10, §11
Following the incubation, the PHERAstar FSX […] microplate reader was used to measure the acceptor and donor emissions at 665 nm and 620 nm, respectively. The acceptor/donor ratio was used to calculate relative energy transfer. Data was normalized by two-point normalization using neutral and inhibitor controls (neutral control: DMSO, inhibitor control: 0.1nM 2-[[4-[carboxymethyl-(4-methoxyphenyl)sulfonylamino]naphthale n-1-yl]-(4-methoxyphenyl)sulfonylamino]acetic acid; […]
parameter logistic fit and IC50 values were calculated using Genedata screener software (Genedata, […]

[3] = Table 1, geometric mean ± sd of at least 3 independent repeats unless stated, 20°C
[4] = Table 1, single cycle kinetics, 1:1 Langmuir model
[5] = Table 1, geometric mean ± sd of at least 3 independent repeats unless stated, read-out: TR-FRET IC50

SMILES	Kd [1, 3] [nM]	koff [1, 4] [s⁻¹]	kon [1, 4] [M⁻¹ s⁻¹]	IC50 [2, 5] [nM]	koff ([1]; Table 2) [s⁻¹]	kon ([1]; Table 2) [M⁻¹ s⁻¹]	Kd ([1]; Table 2, geometric mean ± sd of at least two independent repeats) [nM]	IC50 ([2]; Table 2, IC50, minimum of three repeats, read-out: TR-FRET) [nM]
CC(=O)N[C@H]1CSCc2cccc(c2)CSC[C@@H](C(=O)N[C@@H](CC(C)C)C(N)=O)NC(=O)[C@H](CCC(=O)O)NC(=O)CNC(=O)[C@H]([C@@H](C)O)NC(=O)[C@H](CCC(=O)O)NC(=O)[C@@H]2CCCN2C(=O)[C@H](CC(=O)O)NC(=O)[C@H](CC(C)C)NC(=O)[C@H](CCC(N)=O)NC1=O [Peptide P1-C] (Ac-CQLDPETGECL-NH2; linker 1-10 via mXylylene)	17 ± 1.2	0.0078	470000	2.1	–	–	–	–
CC(=O)N[C@@H](CC(C)C)C(=O)N[C@@H](CCC(N)=O)C(=O)N[C@H]1CSCC(=O)CSC[C@@H](C(=O)N[C@@H](CC(C)C)C(N)=O)NC(=O)[C@H](CCC(=O)O)NC(=O)CNC(=O)[C@H]([C@@H](C)O)NC(=O)[C@H](CCC(=O)O)NC(=O)[C@@H]2CCCN2C(=O)[C@H](CC(=O)O)NC1=O [Peptide P2-B] (Ac-LQCDPETGECL-NH2; linker 3-10 via CH2COCH2)	97 ± 1.4	0.028	350000	9.8 ± 1.2	–	–	–	–
CC(=O)N[C@H]1CSCCc2cc(nc(N(C)CC(=O)O)n2)CCSC[C@@H](C(=O)N[C@@H](CC(C)C)C(N)=O)NC(=O)[C@H](CCC(=O)O)NC(=O)CNC(=O)[C@H]([C@@H](C)O)NC(=O)[C@H](CCC(=O)O)NC(=O)[C@@H]2CCCN2C(=O)[C@H](CC(=O)O)NC(=O)[C@H](CC(C)C)NC(=O)[C@H](CCC(N)=O)NC1=O [Peptide P1-D] (Ac-CQLDPETGECL-NH2; linker 1-10 via X1)	25 ± 1.3	0.0047	200000	2.9 ± 1.4	–	–	–	–
CC(=O)N[C@@H](CC(C)C)C(=O)N[C@@H](CCC(N)=O)C(=O)N[C@@H](CS)C(=O)N[C@@H](CC(=O)O)C(=O)N1CCC[C@H]1C(=O)N[C@@H](CCC(=O)O)C(=O)N[C@H](C(=O)NCC(=O)N[C@@H](CCC(=O)O)C(=O)N[C@@H](CS)C(=O)N[C@@H](CC(C)C)C(N)=O)[C@@H](C)O [Peptide P2] (Ac-LQCDPETGECL-NH2)	75	–	–	–	–	–	–	–
CC(=O)N[C@@H](CC(C)C)C(=O)N[C@@H](CCC(N)=O)C(=O)N[C@H]1CSCSC[C@@H](C(=O)N[C@@H](CC(C)C)C(N)=O)NC(=O)[C@H](CCC(=O)O)NC(=O)CNC(=O)[C@H]([C@@H](C)O)NC(=O)[C@H](CCC(=O)O)NC(=O)[C@@H]2CCCN2C(=O)[C@H](CC(=O)O)NC1=O [Peptide P2-A] (Ac-LQCDPETGECL-NH2; linker 3-10 via CH2)	70 ± 1	0.015	210000	8.3 ± 1.1	–	–	–	–
CC(=O)N[C@@H](CS)C(=O)N[C@@H](CCC(N)=O)C(=O)N[C@@H](CC(C)C)C(=O)N[C@@H](CC(=O)O)C(=O)N1CCC[C@H]1C(=O)N[C@@H](CCC(=O)O)C(=O)N[C@H](C(=O)NCC(=O)N[C@@H](CCC(=O)O)C(=O)N[C@@H](CS)C(=O)N[C@@H](CC(C)C)C(N)=O)[C@@H](C)O [Peptide P1] (Ac-CQLDPETGECL-NH2)	20 ± 1.2	0.0014	86000	4.9 ± 1.1	–	–	–	–
CC(=O)N[C@@H](CS)C(=O)N[C@@H](CC(=O)O)C(=O)N1CCC[C@H]1C(=O)N[C@@H](CCC(=O)O)C(=O)N[C@H](C(=O)NCC(=O)N[C@@H](CCC(=O)O)C(=O)N[C@@H](CS)C(=O)N[C@@H](CC(C)C)C(N)=O)[C@@H](C)O [Peptide P8]	–	–	–	–	0.0055	95000	56 ± 1.3	4.9 ± 1.2
CC(=O)N[C@H]1CSCC(=O)CSC[C@@H](C(=O)N[C@@H](CC(C)C)C(N)=O)NC(=O)[C@H](CCC(=O)O)NC(=O)CNC(=O)[C@H]([C@@H](C)O)NC(=O)[C@H](CCC(=O)O)NC(=O)[C@@H]2CCCN2C(=O)[C@H](CC(=O)O)NC(=O)[C@H](CC(C)C)NC(=O)[C@H](CCC(N)=O)NC1=O [Peptide P1-B] (Ac-CQLDPETGECL-NH2; linker 1-10 via CH2COCH2)	27 ± 1.3	0.0087	410000	4.4 ± 1.4	–	–	–	–
CC(=O)N[C@@H](CS)C(=O)N[C@@H](CC(C)C)C(=O)N[C@@H](CCC(N)=O)C(=O)N[C@@H](CC(C)C)C(=O)N[C@@H](CC(=O)O)C(=O)N1CCC[C@H]1C(=O)N[C@@H](CCC(=O)O)C(=O)N[C@H](C(=O)NCC(=O)N[C@@H](CCC(=O)O)C(=O)N[C@@H](CS)C(=O)N[C@@H](CC(C)C)C(N)=O)[C@@H](C)O [Peptide P3] (Ac-CLQLDPETGECL-NH2)	19 ± 1.8	0.0049	180000	5 ± 1.5	–	–	–	–
CC(=O)N[C@@H](CC(C)C)C(=O)N[C@@H](CCC(N)=O)C(=O)N[C@H]1CSCCc2cc(nc(N(C)CC(=O)O)n2)CCSC[C@@H](C(=O)N[C@@H](CC(C)C)C(N)=O)NC(=O)[C@H](CCC(=O)O)NC(=O)CNC(=O)[C@H]([C@@H](C)O)NC(=O)[C@H](CCC(=O)O)NC(=O)[C@@H]2CCCN2C(=O)[C@H](CC(=O)O)NC1=O [Peptide P2-D] (Ac-LQCDPETGECL-NH2; linker 3-10 via X1)	54 ± 1.2	0.0083	160000	4.8 ± 1.5	–	–	–	–
CC(=O)N[C@H]1Cn2cc(nn2)-c2cc(C(=O)O)cc(c2)-c2cn(nn2)C[C@@H](C(=O)N[C@@H](CC(C)C)C(N)=O)NC(=O)[C@H](CCC(=O)O)NC(=O)CNC(=O)[C@H]([C@@H](C)O)NC(=O)[C@H](CCC(=O)O)NC(=O)[C@@H]2CCCN2C(=O)[C@H](CC(=O)O)NC(=O)[C@H](CC(C)C)NC(=O)[C@H](CCC(N)=O)NC(=O)[C@H](CC(C)C)NC1=O [Peptide P3Aza-E]	34 ± 1.3	0.0054	170000	4 ± 1.4	–	–	–	–
CC(=O)N[C@H]1CSCCc2cc(nc(N(C)CC(=O)O)n2)CCSC[C@@H](C(=O)N[C@@H](CC(C)C)C(N)=O)NC(=O)[C@H](CCC(=O)O)NC(=O)CNC(=O)[C@H]([C@@H](C)O)NC(=O)[C@H](CCC(=O)O)NC(=O)[C@@H]2CCCN2C(=O)[C@H](CC(=O)O)NC(=O)[C@H](CC(C)C)NC(=O)[C@H](CCC(N)=O)NC(=O)[C@H](CC(C)C)NC1=O [Peptide P3-D] (Ac-CLQLDPETGECL-NH2; linker 1-11 via X1)	22 ± 1.3	0.0028	140000	2.4 ± 1.3	–	–	–	–
CC(=O)N[C@H]1CSCSC[C@@H](C(=O)N[C@@H](CC(C)C)C(N)=O)NC(=O)[C@H](CCC(=O)O)NC(=O)CNC(=O)[C@H]([C@@H](C)O)NC(=O)[C@H](CCC(=O)O)NC(=O)[C@@H]2CCCN2C(=O)[C@H](CC(=O)O)NC(=O)[C@H](CC(C)C)NC(=O)[C@H](CCC(N)=O)NC1=O [Peptide P1-A] (Ac-CQLDPETGECL-NH2; linker 1-10 via CH2)	19 ± 1.4	0.0073	480000	2.9 ± 1.7	–	–	–	–
CC(=O)N[C@@H](CC(C)C)C(=O)N[C@@H](CCC(N)=O)C(=O)N[C@H]1CSCc2cccc(c2)CSC[C@@H](C(=O)N[C@@H](CC(C)C)C(N)=O)NC(=O)[C@H](CCC(=O)O)NC(=O)CNC(=O)[C@H]([C@@H](C)O)NC(=O)[C@H](CCC(=O)O)NC(=O)[C@@H]2CCCN2C(=O)[C@H](CC(=O)O)NC1=O [Peptide P2-C] (Ac-LQCDPETGECL-NH2; linker 3-10 via mXylylene)	36 ± 1.8	0.013	500000	5.6 ± 1.1	–	–	–	–
